Measured values published in ChEMBL document CHEMBL4680275, “From Seeds of Apium graveolens Linn. to a Cerebral Ischemia Medicine: The Long Journey of 3-n-Butylphthalide” (J Med Chem, 2020).

Assay: Antioxidant activity assessed as hydroxyl radical scavenging activity incubated for 60 mins in water bath by Fenton reaction-based method
Format: functional

IC50 [mM]	Compound
3.57	CC1=NN(c2ccccc2)C(=O)C1 [EDARAVONE]
2.87	CCCCC1OC(=O)c2cc(N3N=C(C)CC3=O)ccc21 (racemic)
